Test results as given in patent US9416115B2, “Fused heterocyclic compounds as ion channel modulators” (Gilead Sciences, Inc., priority 2013, dated 2016).

Experiments:
[1] = tested on: Ischemia-Induced ST Segment Elevation in Anesthetized Rabbits; assay: Ischemia-induced ST segment elevation in anesthetized rabbits; type: in vivo, New Zealand rabbits; settings: iv infusion; 15 min LAD ischemia after 30 min of compound administration
Experimental: This study was undertaken to determine the anti-ischemic effects of compounds of the present disclosure in an in vivo rabbit model.
Female New Zealand rabbits (3.0-4.0 kg) were purchased from Western Oregon Rabbitry. Animals were housed on a 12-h light and dark cycle and received standard laboratory chow and water. All experiments were performed in accordance with the Guide for the Care and Use of Laboratory Animals published by The National Research Council and with the experimental protocol approved by the Institutional Animal Care Committee of Gilead Sciences, Inc.
(§1) Rabbits were anesthetized with ketamine (35 mg/kg) and xylazine (5 mg/kg) intramuscular injection (im). A tracheotomy was performed and the trachea was intubated with an endotracheal tube. The animal was ventilated with room air supplemented with oxygen using a pressure control animal ventilator (Kent Scientific Corp., Torrington, Conn.) at a respiratory rate of 40 strokes/min and peak inspiration pressure of 10 mmH2O, which was adjusted to keep blood gases and pH within the physiological range (iSTAT clinic analyzer, Heska Corp.; Waukesha, Wis.). The left femoral artery was cannulated for the measurement of blood pressure (BP). Blood samples were also withdrawn from femoral artery. The right external jugular vein was cannulated for drug/vehicle administration. Needle electrodes were inserted subcutaneously into the limbs for recording of the surface electrocardiogram (ECG).
The heart was exposed via an incision in the 4th intercostal space (4th and/or 5th ribs were cut for a clear surgical vision). The chest was opened and a pericardial cradle was formed using 4 retractors. A coronary artery occluder, comprised of a snare made of 5 cm PE-10 tubing with a 6-0 Prolene polypropylene suture in it, was placed loosely around the left anterior descending artery (LAD) at its origin. Two unipolar electrodes, made with teflon coated silver wire attached to a small patch of filter paper, were attached on the surface of the ischemic and normal regions of the left ventricle to record epicardial electrocardiogram.
(§2) Reference electrodes were placed in the open incision of the neck. The body temperature of the animal was monitored via a rectal thermometer and maintained at 37-40° C. by adjusting the surface temperature of the surgical table. Regional ischemia (15 min) was induced by ligating the LAD followed by 15 min of reperfusion caused by releasing the ligation. The heart was excised at the end of the experiment and the LAD was re-ligated. The ischemic area was visualized by perfusing the heart with 1% Evans blue in saline and calculated as a percentage of total ventricular weight. Rabbits with ischemic area less than 10% or larger than 25% were excluded from the analysis. Animals were randomly assigned to vehicle and test compound groups. Test compounds were dissolved in 15% NMP, 10% Solutol and 75% de-ionized water (dH2O). Test compounds were given as an iv infusion at a rate targeted to reach plasma concentrations of 1 μM. After 30 min of compound administration the heart was subjected to 15 min of ischemia followed by 15 min of reperfusion.

[2] = Plasma concentration in the rabbit ischemia study; type: in vivo, New Zealand rabbits; settings: iv infusion targeted to 1 uM plasma
Experimental: as §1, §2

[3] = biological target: T1, hNav1.3 (SCN3A) (Homo sapiens, UniProt Q9NY46); assay: Voltage-dependent inhibition of the Nav1.3 sodium channel; type: cell-based; settings: voltage-dependent block of peak current, read-out: Nav 1.3-VDB 1 uM
T1 construct: expressed in transfected cells
Experimental: HEK-293 cells stably expressing wild-type (WT) hNav1.3 (SCN3A NCBI # NP 001075, SCN1B NCBI # NM 001037.4, SCN2B NCBI # NM 004588.2) were used to record INa. Cells are maintained with standard tissue culture procedures and stable channel expression is maintained with 800 ug/mL G418 and 3 ug/mL Puromycin in the culture medium. Unless otherwise noted, all reagents are purchased from Sigma-Aldrich (St Louis, Mo., U.S.A.).
Assays measuring Voltage-Dependent Block (VDB) of Nav1.3 are performed on an automated electrophysiology platform, QPatch 16X or QPatch HT (Sophion Bioscience, Copenhagen, Denmark), using the whole cell patch clamp technique to measure currents through the cell membrane. Series resistance compensation is set to 100% and series resistance and whole-cell compensation are performed automatically. Currents stored in the Sophion Bioscience Oracle database (Sophion Bioscience, Copenhagen, Denmark). Analysis is performed using QPatch Assay software and data are compiled in Excel 2010 (Microsoft, Seattle, Wash., U.S.A.).
The internal (pipette) solution consists of (in mM) 105 CsF, 10 NaF, 20 CsCl, 2 EGTA, 10 HEPES, 10 Dextrose with a pH of 7.35 and osmolarity of 300 mOsmol/kg. The external (bath) solution contains in (mM): 80 NaCl, 60 Choline-Cl, 4 KCl, 1.8 CaCl2, 1 MgCl2, 10 dextrose, 10 HEPES, with a pH of 7.35 and osmolarity of 310 mOsmol/kg. Experiments are carried out at 23-25° C.
Compound stocks are routinely made by the Gilead Sample Bank in vials to 10 mM in dimethyl sulfoxide (DMSO). In some cases, when compounds are not soluble in DMSO, they are made in 100% ethanol. Stocks are sonicated as necessary. Compounds are diluted in extracellular solution using a MicroLab Nimbus (Hamilton Robotics, Reno, Nev.) to 1 μM in glass vials and transferred to glass well plates before robotic addition to the cells.
Cells are allowed to stabilize for 10 min after establishment of the whole-cell configuration before current is measured. The test compound is applied 3 times at 120 second intervals to allow for equilibration. Currents were leak subtracted using a P/4 procedure, low-pass Bessel filtered at 5 kHz and digitized at 25 kHz. Results are presented as mean percentage inhibition.
Voltage-dependent block of Nav1.3 peak current was measured during a voltage step to 0 mV (20 ms) following a voltage step pre-conditioning steps (−55 mV for 10 sec followed by −120 mV for 10 ms). The holding potential was −120 mV and this voltage protocol induces half maximal inactivation of Nav1.3. The voltage protocol for VDB was performed every 45 seconds in the absence and presence of compound and percentage inhibition was calculated with respect to the compound free condition.

T1 sequence (Q9NY46 1-1951 isoform Q9NY46-2): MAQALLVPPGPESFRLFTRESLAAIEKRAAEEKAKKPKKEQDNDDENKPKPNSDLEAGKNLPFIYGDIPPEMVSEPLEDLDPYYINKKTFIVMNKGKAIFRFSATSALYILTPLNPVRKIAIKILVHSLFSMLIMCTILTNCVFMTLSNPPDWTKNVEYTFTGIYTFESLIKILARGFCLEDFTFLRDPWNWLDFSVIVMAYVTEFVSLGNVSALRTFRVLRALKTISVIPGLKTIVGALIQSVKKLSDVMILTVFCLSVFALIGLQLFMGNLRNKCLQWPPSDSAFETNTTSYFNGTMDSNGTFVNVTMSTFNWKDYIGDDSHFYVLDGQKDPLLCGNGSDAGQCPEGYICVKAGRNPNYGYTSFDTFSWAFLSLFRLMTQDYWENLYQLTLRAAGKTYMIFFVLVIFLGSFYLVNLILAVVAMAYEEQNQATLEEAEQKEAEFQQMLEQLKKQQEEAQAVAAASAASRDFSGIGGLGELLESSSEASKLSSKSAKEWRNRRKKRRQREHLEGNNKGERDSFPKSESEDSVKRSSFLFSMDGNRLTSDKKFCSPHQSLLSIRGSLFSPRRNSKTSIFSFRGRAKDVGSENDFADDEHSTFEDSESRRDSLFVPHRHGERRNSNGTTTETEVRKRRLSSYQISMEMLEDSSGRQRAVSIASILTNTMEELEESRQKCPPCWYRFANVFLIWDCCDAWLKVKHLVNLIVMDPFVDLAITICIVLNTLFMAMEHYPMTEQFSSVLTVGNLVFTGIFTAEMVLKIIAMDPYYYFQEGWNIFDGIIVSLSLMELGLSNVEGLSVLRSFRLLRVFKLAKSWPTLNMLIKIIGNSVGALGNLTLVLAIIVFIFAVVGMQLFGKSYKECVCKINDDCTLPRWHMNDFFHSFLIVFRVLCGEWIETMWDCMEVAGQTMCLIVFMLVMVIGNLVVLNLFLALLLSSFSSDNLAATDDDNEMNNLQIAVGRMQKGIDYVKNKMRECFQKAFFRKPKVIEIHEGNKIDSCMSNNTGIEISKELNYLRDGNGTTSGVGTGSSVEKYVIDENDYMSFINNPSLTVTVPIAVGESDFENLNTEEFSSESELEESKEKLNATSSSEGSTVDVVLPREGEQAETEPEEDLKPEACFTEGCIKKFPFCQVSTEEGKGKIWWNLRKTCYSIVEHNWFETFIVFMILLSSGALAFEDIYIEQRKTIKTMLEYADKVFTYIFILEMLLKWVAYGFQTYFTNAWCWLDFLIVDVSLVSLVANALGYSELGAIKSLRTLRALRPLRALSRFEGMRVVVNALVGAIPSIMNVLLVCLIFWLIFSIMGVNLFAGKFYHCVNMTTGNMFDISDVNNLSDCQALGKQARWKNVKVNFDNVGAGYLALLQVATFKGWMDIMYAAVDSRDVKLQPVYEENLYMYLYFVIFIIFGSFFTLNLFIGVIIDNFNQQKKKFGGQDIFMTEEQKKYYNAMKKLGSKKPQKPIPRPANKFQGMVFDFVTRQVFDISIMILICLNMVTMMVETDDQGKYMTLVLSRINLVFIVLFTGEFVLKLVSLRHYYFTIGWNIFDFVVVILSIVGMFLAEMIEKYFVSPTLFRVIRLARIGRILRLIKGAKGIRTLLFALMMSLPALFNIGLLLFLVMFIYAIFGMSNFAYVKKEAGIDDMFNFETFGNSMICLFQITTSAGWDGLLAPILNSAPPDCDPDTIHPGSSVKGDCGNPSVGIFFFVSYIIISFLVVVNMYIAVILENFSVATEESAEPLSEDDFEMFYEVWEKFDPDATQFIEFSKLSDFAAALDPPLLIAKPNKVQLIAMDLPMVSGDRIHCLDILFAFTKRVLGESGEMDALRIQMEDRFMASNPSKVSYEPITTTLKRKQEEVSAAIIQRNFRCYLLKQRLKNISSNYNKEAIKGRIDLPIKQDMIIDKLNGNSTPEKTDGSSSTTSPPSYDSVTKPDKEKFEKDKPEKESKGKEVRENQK
T1 sequence (Q07699 19-218 partner): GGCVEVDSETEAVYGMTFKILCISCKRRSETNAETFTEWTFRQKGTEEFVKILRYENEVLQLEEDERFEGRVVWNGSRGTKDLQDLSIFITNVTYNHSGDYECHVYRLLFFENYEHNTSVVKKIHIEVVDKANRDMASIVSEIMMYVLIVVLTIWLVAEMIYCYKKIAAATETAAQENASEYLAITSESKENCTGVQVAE
T1 sequence (O60939 30-215 partner): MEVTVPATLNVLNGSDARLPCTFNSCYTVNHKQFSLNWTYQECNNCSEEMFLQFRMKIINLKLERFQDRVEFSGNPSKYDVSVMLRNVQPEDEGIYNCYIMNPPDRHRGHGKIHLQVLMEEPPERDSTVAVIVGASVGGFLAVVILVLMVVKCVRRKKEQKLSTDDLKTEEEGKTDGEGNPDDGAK

| Compound | Rabbit ST Segment (Percent reduction) [1] [Percent reduction] | Plasma concentration [2] [nM] | inhibition at 1 µM [3] [%] |
| --- | --- | --- | --- |
| FC(F)(F)Oc1ccc(-c2ccc3onc(OCc4ncccn4)c3c2)cc1 [Example 1, 3-(pyrimidin-2-ylmethoxy)-5-(4-(trifluoromethoxy)phenyl)benzo[d]isoxazole] | 32 | 1000 | – |
| COc1cc(OC(F)(F)F)ccc1-c1ccc2onc(OCc3ncccn3)c2c1 [Example 4, 5-(2-methoxy-4-(trifluoromethoxy)phenyl)-3-(pyrimidin-2-ylmethoxy)benzo[d]isoxazole] | – | – | 12.2 |
| Cc1ccnc(COc2noc3ccc(-c4ccc(OC(F)(F)F)cc4)cc23)n1 [Example 5, 3-((4-methylpyrimidin-2-yl)methoxy)-5-(4-(trifluoromethoxy)phenyl)benzo[d]isoxazole] | 0 | 1400 | 13.9 |
| Fc1cc(C(F)(F)F)ccc1-c1ccc2onc(OCc3ncccn3)c2c1 [Example 6, 5-(2-fluoro-4-(trifluoromethyl)phenyl)-3-(pyrimidin-2-ylmethoxy)benzo[d]isoxazole] | 0 | 800 | < 5 |
| Cc1cc(-c2ccc3onc(OCc4ncccn4)c3c2)ccc1OC(F)(F)F [Example 7, 5-(3-methyl-4-(trifluoromethoxy)phenyl)-3-(pyrimidin-2-ylmethoxy)benzo[d]isoxazole] | – | – | < 5 |
| Fc1cc(-c2ccc3onc(OCc4ncccn4)c3c2)ccc1Cl [Example 8, 5-(4-chloro-3-fluorophenyl)-3-(pyrimidin-2-ylmethoxy)benzo[d]isoxazole] | – | – | 6.4 |
| FC(F)(F)Oc1cccc(-c2ccc3onc(OCc4ncccn4)c3c2)c1 [Example 10, 3-(pyrimidin-2-ylmethoxy)-5-(3-(trifluoromethoxy)phenyl)benzo[d]isoxazole] | – | – | 8.5 |
| COc1cc(-c2ccc(OC(F)(F)F)cc2)cc2c(OCc3ncccn3)noc12 [Example 22, 7-methoxy-3-(pyrimidin-2-ylmethoxy)-5-(4-(trifluoromethoxy)phenyl)benzo[d]isoxazole] | – | – | 17.3 |
| FC(F)(F)Oc1ccc(-c2ccc3onc(OCCn4cncn4)c3c2)cc1 [Example 58, 3-(2-(1H-1,2,4-triazol-1-yl)ethoxy)-5-(4-(trifluoromethoxy)phenyl)benzo[d]isoxazole] | 14 | 1300 | – |
| O=C1CCCN1CCOc1noc2ccc(-c3ccc(OC(F)(F)F)cc3)cc12 [Example 59, 1-(2-((5-(4-(trifluoromethoxy)phenyl)benzo[d]isoxazol-3-yl)oxy)ethyl)pyrrolidin-2-one] | 23 | 1300 | 14.5 |
| CC(COc1noc2ccc(-c3ccc(OC(F)(F)F)cc3)cc12)n1cccn1 (stereo not shown) [Example 68, 3-(2-(1H-pyrazol-1-yl)propoxy)-5-(4-(trifluoromethoxy)phenyl)benzo[d]isoxazole] | – | – | 27.1 |
| FC(F)(F)Oc1ccc(-c2ccc3onc(OCc4nnc(C5CC5)o4)c3c2)cc1 [Example 96, 3-((5-cyclopropyl-1,3,4-oxadiazol-2-yl)methoxy)-5-(4-(trifluoromethoxy)phenyl)benzo[d]isoxazole] | 46 | 1000 | – |
| Cc1nnc(COc2noc3ccc(-c4ccc(OC(F)(F)F)cc4)cc23)o1 [Example 99, 3-((5-methyl-1,3,4-oxadiazol-2-yl)methoxy)-5-(4-(trifluoromethoxy)phenyl)benzo[d]isoxazole] | – | – | 41.4 |
